What all share (experiment): NCI anticancer screen, dose series, 48 h
The test system of test [1] is HL-60(TB) leukemia.
Test [2] deals with SN12C renal.
In test [3] the test system is SF-539 CNS.
Test [4] relates to HCT-116 colon.
Test [5] concerns LOX IMVI melanoma.
In test [6] the test system is SK-OV-3 ovarian.
In test [7] the test system is SK-MEL-5 melanoma.
Test [8] has as its system TK-10 renal.
Test [9] has as its system MALME-3M melanoma.
Test [10] relates to SNB-19 CNS.

Molecules are shown by their SMILES.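 48-hour exposure; five concentrations; linearly interpolated endpoints. GI50: concentration for 50% inhibition of growth. TGI marks complete inhibition of growth.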

`Cc1ccc2c(c1)CNc1ccc(C)cc1CN2`: the TGI in test [1], in test [2], in test [3], in [4], in test [5] and in [6] was above 100 µM throughout. In [7], this compound showed a TGI above 100 µM.
For `CC1C(=O)O[C@H]2C1CC[C@@]1(C)[C@H](O)CC[C@@]13C[C@]2(O)OO3` (stereo partly drawn), the TGI in [1], in [8], in test [2], in [4], in [9] and in test [5] was above 100 µM each time. The TGI in test [10], in test [6] and in test [7] was above 100 µM in each case.
For `COc1ccc(-c2c(N)[n+]([O-])c3ccccc3[n+]2[O-])cc1OC`, the TGI in test [1], in test [2], in test [3], in test [4], in test [9] and in test [10] was above 100 µM throughout. Further, the TGI in test [6] and in test [7] was above 100 µM in each case.
Turning to `O=C(c1ccc(Cl)cc1)c1ccc(OCCSCCCCCCCCCCSCCOc2ccc(C(=O)c3ccc(Cl)cc3)cc2)cc1`, the TGI in test [1], in [8], in [2], in test [9], in test [5] and in test [10] was above 100 µM each time. The TGI in test [6] and in [7] was above 100 µM in each case.
As for `O=C1CS/C(=N\S(=O)(=O)c2ccc(N3N=C4c5ccccc5CC4C3c3ccc(Cl)cc3)cc2)N1c1ccccc1` (stereo not drawn), the GI50 was 23.1 µM in test [1]; 29.7 µM in [8]; 37.3 µM in test [2]; 60.2 µM in [3]; 38.7 µM in [4]; 23.4 µM in [5]. Further, the GI50 in test [10] was 23.3 µM; in [6] it was 31.4 µM; in test [7], 32.2 µM. Besides, the TGI was 48.7 µM in test [1]; above 100 µM in test [8]; above 100 µM in test [2]; above 100 µM in [3]; above 100 µM in test [4]; 49.1 µM in test [5]. Also, the TGI in [10] is above 100 µM; in test [6], 95.2 µM; in test [7], above 100 µM.
Take `S=c1nc(N2CCCCC2)ss1`: the TGI in [1] is 44.3 µM; in [8], above 100 µM; in test [2], 40.9 µM; in test [3], 36.6 µM; in test [4], 42.4 µM; in test [9] it was 35.6 µM. In addition, the TGI in test [10] was 84.9 µM; in [6], above 100 µM; in test [7] it was 30.5 µM.
With `O=[N+]([O-])c1ccc(Cl)cc1N/N=C/c1cccc2cccnc12`, the TGI in test [1], in test [8], in test [2], in test [3], in [4] and in test [10] was above 100 µM throughout. For the same compound, the TGI in test [6] and in [7] was above 100 µM in each case.
As for `Clc1ccc(Nc2ccnc(NCCCNc3ccnc4cc(Cl)ccc34)n2)cc1`, the GI50 in test [8] is 1.94 µM; in test [3] it was 1.67 µM; in test [4], 1.42 µM; in [6], 1.57 µM; in [7], 1.4 µM. Besides, the TGI is 3.41 µM in [8]; 3.19 µM in test [3]; 3.1 µM in [4]; 2.94 µM in test [6]; 2.75 µM in test [7].
Turning to `Cc1nc(C(N)=S)sc1C(=O)C/C(=N/N)C(=O)Nc1ccc(Cl)cc1`, the TGI in test [8], in test [2], in [3], in test [4], in [9] and in [5] was above 100 µM in each case. Moreover, the TGI in test [10], in test [6] and in test [7] was above 100 µM in each case.
`COc1ccc(N(/C=C/C(=O)C(F)(F)F)CC(=O)c2ccc(Cl)c(Cl)c2)cc1`: the GI50 in [8] is 13.7 µM; in test [2] it was 14.5 µM; in [3], 16.1 µM; in test [4] it was 9.94 µM; in test [9] it was 39.7 µM; in test [5], 11.8 µM. For the same compound, the GI50 in test [6] is 20.1 µM; in [7], 7 µM. Further, the TGI is 27.1 µM in test [8]; 33.5 µM in test [2]; 30.3 µM in test [3]; 21.5 µM in test [4]; above 100 µM in [9]; 27.4 µM in test [5]. Also, the values for the TGI in test [6] and in test [7] were 39.7 µM and 20.4 µM, respectively.
In the case of `C1=Nc2ccccc2C=Nc2ccccc2C=Nc2ccccc2C=Nc2ccccc21.[Cl-].[Pt+2]`, the GI50 was 3.95 µM in test [1]; 45.7 µM in [8]; 28.4 µM in test [2]; 23.1 µM in test [3]; 25.9 µM in [4]; 29.9 µM in [5]. Also, the values for the GI50 in test [10], in test [6] and in [7] were 42.8 µM, 24.4 µM and 18.8 µM, respectively. Besides, the TGI is 22.4 µM in test [1]; above 100 µM in test [8]; above 100 µM in [2]; 54.1 µM in test [3]; above 100 µM in test [4]; above 100 µM in test [5]. The TGI in test [10] was above 100 µM; in [6], 65.9 µM; in test [7], 48.3 µM.
Turning to `O=c1c2cccnc2ncn1CCN1CCCC1`, the TGI in test [8], in test [2], in test [3], in test [4], in [9] and in [5] was above 100 µM in each case. Besides, the TGI in test [10], in [6] and in test [7] was above 100 µM in each case.
Take `N#Cc1c(N)nc(N2CCOCC2)c(C#N)c1-c1ccccc1Cl`: the GI50 is 35.8 µM in [2]; 43.5 µM in test [3]; 74.7 µM in test [4]; 56 µM in test [5]; 48.5 µM in [10]; 41.2 µM in test [6]. Also, the GI50 in [7] was 32.4 µM. Moreover, the TGI in [2], in test [3], in [4], in [5], in [10] and in test [6] was above 100 µM each time. The TGI in test [7] is above 100 µM.

The values are drawn from PubChem BioAssay (NCI).
